From paper PMC7443477 (British Journal of Pharmacology, 2020)

Tests used:
Assay type in all cases: cell-based
LPA3 receptor = molecular target: T1, LPA3 receptor (Homo sapiens, UniProt Q9UBY5); assay: FLIPR calcium flux, CHO cells
T1 sequence (Q9UBY5 1-353): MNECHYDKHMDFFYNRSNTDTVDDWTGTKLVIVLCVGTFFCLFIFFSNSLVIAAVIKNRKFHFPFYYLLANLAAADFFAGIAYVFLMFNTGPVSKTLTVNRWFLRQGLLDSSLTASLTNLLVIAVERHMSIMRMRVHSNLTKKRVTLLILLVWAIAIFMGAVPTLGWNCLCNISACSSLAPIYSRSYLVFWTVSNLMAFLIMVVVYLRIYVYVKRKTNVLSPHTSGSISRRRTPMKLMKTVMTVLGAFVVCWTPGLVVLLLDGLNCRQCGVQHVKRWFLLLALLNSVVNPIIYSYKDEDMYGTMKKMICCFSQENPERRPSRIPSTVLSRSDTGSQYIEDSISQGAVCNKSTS

LPA5 receptor = LPA5 receptor (Homo sapiens, UniProt Q9H1C0); assay: FLIPR calcium flux, CHO cells
LPA2 receptor = LPA2 receptor (Homo sapiens, UniProt Q9HBW0); assay: FLIPR calcium flux, CHO cells
[1] = molecular target: LPA1 receptor (native, systemic sclerosis dermal fibroblasts) (Homo sapiens, UniProt Q92633); assay: FLIPR calcium flux, primary SSc dermal fibroblasts; conditions: agonist; 0.3% fatty acid-free human serum albumin; Gi/Go coupled
LPA1 receptor (native, systemic sclerosis dermal fibroblasts), sequence (Q92633 whole entry): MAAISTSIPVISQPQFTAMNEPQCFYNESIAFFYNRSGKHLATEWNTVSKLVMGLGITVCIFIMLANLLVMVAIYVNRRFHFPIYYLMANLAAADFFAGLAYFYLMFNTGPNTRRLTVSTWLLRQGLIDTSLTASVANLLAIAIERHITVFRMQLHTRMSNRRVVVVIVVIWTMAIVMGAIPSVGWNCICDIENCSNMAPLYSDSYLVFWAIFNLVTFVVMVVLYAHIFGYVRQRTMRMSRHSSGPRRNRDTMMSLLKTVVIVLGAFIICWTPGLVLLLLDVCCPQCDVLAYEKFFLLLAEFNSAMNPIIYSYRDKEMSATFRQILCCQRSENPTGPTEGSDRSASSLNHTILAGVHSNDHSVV

LPA2 receptor, sequence (Q9HBW0 whole entry): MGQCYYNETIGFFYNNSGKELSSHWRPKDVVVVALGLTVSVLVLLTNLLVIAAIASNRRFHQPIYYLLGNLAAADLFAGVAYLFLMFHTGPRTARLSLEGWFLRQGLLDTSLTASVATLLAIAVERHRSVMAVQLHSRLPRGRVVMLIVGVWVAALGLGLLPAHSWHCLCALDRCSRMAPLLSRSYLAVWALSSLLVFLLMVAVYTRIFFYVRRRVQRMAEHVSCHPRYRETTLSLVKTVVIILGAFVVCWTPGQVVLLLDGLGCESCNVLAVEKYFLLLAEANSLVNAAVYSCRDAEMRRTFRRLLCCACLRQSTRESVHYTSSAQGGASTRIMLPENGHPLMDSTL
LPA5 receptor, sequence (Q9H1C0 whole entry): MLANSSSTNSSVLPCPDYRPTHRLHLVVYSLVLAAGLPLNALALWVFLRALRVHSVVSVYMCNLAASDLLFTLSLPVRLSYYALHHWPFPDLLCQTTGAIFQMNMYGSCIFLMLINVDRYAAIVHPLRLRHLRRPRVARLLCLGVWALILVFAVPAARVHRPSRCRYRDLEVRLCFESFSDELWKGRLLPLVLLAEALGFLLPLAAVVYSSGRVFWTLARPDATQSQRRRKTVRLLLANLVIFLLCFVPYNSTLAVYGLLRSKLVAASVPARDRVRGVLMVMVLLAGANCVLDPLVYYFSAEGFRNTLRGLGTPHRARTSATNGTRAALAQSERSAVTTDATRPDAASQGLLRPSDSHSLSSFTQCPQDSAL

For `COc1ccc(C(=O)NC2(C(=O)O)Cc3ccccc3C2)cc1OCCc1cccc(C)c1` [SAR100842, 2‐(4‐methoxy‐3‐(2‐m‐tolyl‐ethoxy)‐benzoylamino)‐indan‐2‐carboxylic acid], the IC50 (LPA3 receptor) was > 10 µM, the IC50 (LPA5 receptor) was > 10 µM and the IC50 (LPA2 receptor) was > 10 µM.

`CCCCCCCC/C=C\CCCCCCCC(=O)OC[C@@H](O)COP(=O)(O)O` [LPA 18:1] was tested, and the EC50 [1] was 0.15 ± 0.05 µM.
